Experimental data published in article PMC9037111, “Structure-based design, synthesis, and biological evaluation of novel piperine–resveratrol hybrids as antiproliferative agents targeting SIRT-2” (RSC Advances, 2021).
Like-named read-outs stand apart in the source and are kept apart here.

Columns and labels:
Assay in all cases: cells
Set-up in all cases: species or system NCI-60 human tumour cell lines; NCI-60 one-dose screen at 10 uM, percent growth inhibition versus untreated control cells
CAKI-1 = settings: Homo sapiens, CAKI-1, growth inhibition, one dose
Description: (§1) The antiproliferative activity of the target compounds 5a–h was screened against a panel of 60 cancer cell lines according to NCI-guidelines at concentration of 10 μM. The results for each compound (Table 1) were recorded as the percent of growth inhibition of treated cells compared to untreated control cells. […] In addition, 5b recorded significant activity against leukemia cancer cell lines K-562 and MOLT-4, Non-small cell lung cancer cell lines NCI-H322M and NCI-H460, Colon cancer cell lines COLO 205, HCT-15 and HCT-116, CNS cancer cell lines SF-295 and SF-539, Melanoma cancer cell lines LOX IMVI and UACC-62, Ovarian cancer cell lines NCI/ADR-RES, OVCAR-3, and OVCAR-4, Renal cancer cell lines CAKI-1, ACHN, and UO-31, and Breast cancer MCF7 cell line with growth inhibition percentage between 80 to 95. […] The methodology of the NCI anticancer screening has been described in detail elsewhere (https://dtp.cancer.gov/).[52]

UACC-62 = settings: Homo sapiens, UACC-62, growth inhibition, one dose
Description: as §1

LOX IMVI = settings: Homo sapiens, LOX IMVI, growth inhibition, one dose
Description: as §1

K-562 = settings: Homo sapiens, K562, growth inhibition, one dose
Description: as §1

SR = settings: Homo sapiens, SR, growth inhibition, one dose
Description: as §1

PC-3 = settings: Homo sapiens, PC-3, growth inhibition, one dose
Description: as §1

M14 = settings: Homo sapiens, M14, growth inhibition, one dose
Description: as §1

MOLT-4 = settings: Homo sapiens, MOLT-4, growth inhibition, one dose
Description: as §1

RPMI-8226 = settings: Homo sapiens, RPMI-8226, growth inhibition, one dose
Description: as §1

BT-549 = settings: Homo sapiens, BT-549, growth inhibition, one dose
Description: as §1

MDA-MB-231/ATCC = settings: Homo sapiens, MDA-MB-231, growth inhibition, one dose
Description: as §1

HCC-2998 = settings: Homo sapiens, HCC 2998, growth inhibition, one dose
Description: as §1

MALME-3M = settings: Homo sapiens, Malme-3M, growth inhibition, one dose
Description: as §1

SNB-19 = settings: Homo sapiens, SNB-19, growth inhibition, one dose
Description: as §1

UACC-257 = settings: Homo sapiens, UACC-257, growth inhibition, one dose
Description: as §1

SK-MEL-28 = settings: Homo sapiens, SK-MEL-28, growth inhibition, one dose
Description: as §1

HCT-116 = settings: Homo sapiens, HCT-116, growth inhibition, one dose
Description: as §1

OVCAR-8 = settings: Homo sapiens, OVCAR-8, growth inhibition, one dose
Description: as §1

[1] = read-out: Growth% inhibition / 5d
[2] = read-out: Growth% inhibition / 5a
[3] = read-out: Growth% inhibition / 5b
[4] = read-out: Growth% inhibition / 5h

`CN(C)c1ccc(C=NNC(=O)/C=C/C=C/c2ccc3c(c2)OCO3)cc1` (mixture of isomers) [5d, (2E,4E)-5-(Benzo[d][1,3]dioxol-5-yl)-N′-((E/Z)-4-(dimethylamino)-benzylidene)penta-2,4-dienehydrazide] was tested, and the inhibition at 10 µM (CAKI-1; [1]) was 24.6%, the inhibition at 10 µM (UACC-62; [1]) was 16.1% and the inhibition at 10 µM (LOX IMVI; [1]) was 11.1%. For the same molecule, the inhibition at 10 µM (K-562; [1]) was 56.1%, the inhibition at 10 µM (SR; [1]) was 62% and the inhibition at 10 µM (PC-3; [1]) was 15%. It also gave an inhibition at 10 µM (M14; [1]) of 22.2%.

Molecule `O=C(/C=C/C=C/c1ccc2c(c1)OCO2)NN=Cc1ccc(O)cc1` [5a, (2E,4E)-5-(Benzo[d][1,3]dioxol-5-yl)-N′-((E,Z)-4-hydroxybenzylidene)penta-2,4-dienehydrazide] has an inhibition at 10 µM (CAKI-1; [2]) of 25.1%, an inhibition at 10 µM (UACC-62; [2]) of 28.5% and an inhibition at 10 µM (MOLT-4; [2]) of 23.5%. It also gave an inhibition at 10 µM (LOX IMVI; [2]) of 38.5%, an inhibition at 10 µM (K-562; [2]) of 58.8% and an inhibition at 10 µM (RPMI-8226; [2]) of 16.9%. It also gave an inhibition at 10 µM (SR; [2]) of 64%, an inhibition at 10 µM (PC-3; [2]) of 19.8% and an inhibition at 10 µM (BT-549; [2]) of 21.5%. For the same molecule, the inhibition at 10 µM (MDA-MB-231/ATCC; [2]) was 17.2% and the inhibition at 10 µM (M14; [2]) was 17.1%.

`O=C(/C=C/C=C/c1ccc2c(c1)OCO2)N/N=C/c1ccc(O)cc1O` [5b, (2E,4E)-5-(Benzo[d][1,3]dioxol-5-yl)-N′-((E)-2,4-dihydroxybenzylidene)penta-2,4-dienehydrazide] was tested, and the inhibition at 10 µM (HCC-2998; [3]) was 61.1%, the inhibition at 10 µM (CAKI-1; [3]) was 90.3% and the inhibition at 10 µM (MALME-3M; [3]) was 59.7%. The inhibition at 10 µM (UACC-62; [3]) was 85.7%, the inhibition at 10 µM (SNB-19; [3]) was 50.9% and the inhibition at 10 µM (MOLT-4; [3]) was 86.7%. For the same molecule, the inhibition at 10 µM (LOX IMVI; [3]) was 90.3%, the inhibition at 10 µM (K-562; [3]) was 88.4% and the inhibition at 10 µM (UACC-257; [3]) was 71.5%. For the same molecule, the inhibition at 10 µM (RPMI-8226; [3]) was 52.3%, the inhibition at 10 µM (SR; [3]) was 78.7% and the inhibition at 10 µM (PC-3; [3]) was 62%. It also gave an inhibition at 10 µM (SK-MEL-28; [3]) of 57.9%, an inhibition at 10 µM (BT-549; [3]) of 72.7% and an inhibition at 10 µM (MDA-MB-231/ATCC; [3]) of 65.6%. It also gave an inhibition at 10 µM (M14; [3]) of 69.7%, an inhibition at 10 µM (HCT-116; [3]) of 91.3% and an inhibition at 10 µM (OVCAR-8; [3]) of 77.2%.

In the case of `C/C(=N\NC(=O)/C=C/C=C/c1ccc2c(c1)OCO2)c1ccc(Br)cc1` [5h, (2E,4E)-5-(Benzo[d][1,3]dioxol-5-yl)-N′-((E)-1-(4-bromophenyl)ethylidene)penta-2,4-dienehydrazide], the inhibition at 10 µM (HCC-2998; [4]) is reported as 10.8%, the inhibition at 10 µM (CAKI-1; [4]) is reported as 28.1% and the inhibition at 10 µM (MALME-3M; [4]) is reported as 28.7%. For the same molecule, the inhibition at 10 µM (UACC-62; [4]) was 28.5%, the inhibition at 10 µM (SNB-19; [4]) was 14.5% and the inhibition at 10 µM (MOLT-4; [4]) was 25.3%. For the same molecule, the inhibition at 10 µM (LOX IMVI; [4]) was 38.3%, the inhibition at 10 µM (K-562; [4]) was 40.1% and the inhibition at 10 µM (UACC-257; [4]) was 12%. For the same molecule, the inhibition at 10 µM (RPMI-8226; [4]) was 19.4%, the inhibition at 10 µM (SR; [4]) was 93.3% and the inhibition at 10 µM (PC-3; [4]) was 30.9%. For the same molecule, the inhibition at 10 µM (SK-MEL-28; [4]) was 14.2%, the inhibition at 10 µM (MDA-MB-231/ATCC; [4]) was 21% and the inhibition at 10 µM (M14; [4]) was 26.7%. The inhibition at 10 µM (HCT-116; [4]) was 12.3% and the inhibition at 10 µM (OVCAR-8; [4]) was 24.7%.
